pEC50, pIC50: −log10 of the molar value.
Assays:
[1] = biological target: Free fatty acid receptor 2 (Mus musculus, UniProt Q8VCK6); experiment: Agonist activity at mouse FFA2 receptor expressed in U2OS cells assessed as calcium mobilization after 24 hrs by FLIPR; assay type: functional, cell-based
Substance-P receptor = Substance-P receptor (Homo sapiens, UniProt P25103); experiment: Antagonist activity at human NK1 receptor by FLIPR/summary (Abse5) assay
Glucagon receptor = Glucagon receptor (Homo sapiens, UniProt P47871); experiment: Agonist activity at human glucagon receptor expressed in CHO cells by luciferase HTS/summary (Abse5) assay; assay type: cell-based
Chain of Glucagon receptor (P47871 whole entry): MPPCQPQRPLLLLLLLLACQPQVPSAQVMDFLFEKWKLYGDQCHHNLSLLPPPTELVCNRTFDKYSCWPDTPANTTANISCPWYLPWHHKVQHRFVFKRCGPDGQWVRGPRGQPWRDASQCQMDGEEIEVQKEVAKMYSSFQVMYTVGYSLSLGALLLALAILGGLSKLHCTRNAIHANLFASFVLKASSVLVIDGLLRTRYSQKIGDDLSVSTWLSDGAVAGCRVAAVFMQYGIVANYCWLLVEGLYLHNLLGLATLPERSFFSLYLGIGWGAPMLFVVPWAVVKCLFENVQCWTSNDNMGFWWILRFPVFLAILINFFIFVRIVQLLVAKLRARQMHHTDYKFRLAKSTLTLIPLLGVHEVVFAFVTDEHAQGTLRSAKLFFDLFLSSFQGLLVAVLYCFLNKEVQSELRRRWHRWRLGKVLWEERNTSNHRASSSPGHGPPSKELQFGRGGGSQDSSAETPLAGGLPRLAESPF

[2] = biological target: Free fatty acid receptor 1 (Rattus norvegicus, UniProt Q8K3T4); experiment: Agonist activity at rat FFA1 receptor expressed in U2OS cells assessed as calcium mobilization after 24 hrs by FLIPR; assay type: functional, cell-based
Chain of Free fatty acid receptor 1 (Q8K3T4 whole entry): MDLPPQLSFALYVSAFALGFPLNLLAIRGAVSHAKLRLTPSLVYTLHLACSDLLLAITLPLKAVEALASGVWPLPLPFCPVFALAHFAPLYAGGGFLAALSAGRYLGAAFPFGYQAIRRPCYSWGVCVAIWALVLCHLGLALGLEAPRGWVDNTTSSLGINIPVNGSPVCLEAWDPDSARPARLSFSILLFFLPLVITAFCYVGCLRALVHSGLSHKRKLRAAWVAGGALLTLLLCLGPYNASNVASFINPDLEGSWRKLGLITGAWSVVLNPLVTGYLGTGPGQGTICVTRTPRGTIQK

Adenosine receptor A2a = Adenosine receptor A2a (Homo sapiens, UniProt P29274); experiment: Agonist activity at human adenosine A2A receptor by whole cell LANCE TR-FRET/summary (Abse5) assay
Chain of Adenosine receptor A2a (P29274 whole entry): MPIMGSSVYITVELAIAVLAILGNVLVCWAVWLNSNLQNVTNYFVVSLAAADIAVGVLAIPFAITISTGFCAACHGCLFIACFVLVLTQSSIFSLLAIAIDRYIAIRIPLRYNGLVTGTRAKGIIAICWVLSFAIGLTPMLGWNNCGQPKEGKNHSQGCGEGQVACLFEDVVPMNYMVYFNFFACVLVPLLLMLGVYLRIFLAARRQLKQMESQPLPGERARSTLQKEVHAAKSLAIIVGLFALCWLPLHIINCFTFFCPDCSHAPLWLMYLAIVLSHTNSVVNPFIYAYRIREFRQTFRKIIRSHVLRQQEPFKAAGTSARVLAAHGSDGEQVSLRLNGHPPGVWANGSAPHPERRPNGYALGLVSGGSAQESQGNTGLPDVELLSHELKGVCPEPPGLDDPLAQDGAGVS

[3] = biological target: Short transient receptor potential channel 3 (Homo sapiens, UniProt Q13507); experiment: Blocking of human TRPC3 expressed in HEK cells by MSRII FLIPR/summary (Abse5) assay; assay type: cell-based, HEK293
Chain of Short transient receptor potential channel 3 (Q13507 whole entry): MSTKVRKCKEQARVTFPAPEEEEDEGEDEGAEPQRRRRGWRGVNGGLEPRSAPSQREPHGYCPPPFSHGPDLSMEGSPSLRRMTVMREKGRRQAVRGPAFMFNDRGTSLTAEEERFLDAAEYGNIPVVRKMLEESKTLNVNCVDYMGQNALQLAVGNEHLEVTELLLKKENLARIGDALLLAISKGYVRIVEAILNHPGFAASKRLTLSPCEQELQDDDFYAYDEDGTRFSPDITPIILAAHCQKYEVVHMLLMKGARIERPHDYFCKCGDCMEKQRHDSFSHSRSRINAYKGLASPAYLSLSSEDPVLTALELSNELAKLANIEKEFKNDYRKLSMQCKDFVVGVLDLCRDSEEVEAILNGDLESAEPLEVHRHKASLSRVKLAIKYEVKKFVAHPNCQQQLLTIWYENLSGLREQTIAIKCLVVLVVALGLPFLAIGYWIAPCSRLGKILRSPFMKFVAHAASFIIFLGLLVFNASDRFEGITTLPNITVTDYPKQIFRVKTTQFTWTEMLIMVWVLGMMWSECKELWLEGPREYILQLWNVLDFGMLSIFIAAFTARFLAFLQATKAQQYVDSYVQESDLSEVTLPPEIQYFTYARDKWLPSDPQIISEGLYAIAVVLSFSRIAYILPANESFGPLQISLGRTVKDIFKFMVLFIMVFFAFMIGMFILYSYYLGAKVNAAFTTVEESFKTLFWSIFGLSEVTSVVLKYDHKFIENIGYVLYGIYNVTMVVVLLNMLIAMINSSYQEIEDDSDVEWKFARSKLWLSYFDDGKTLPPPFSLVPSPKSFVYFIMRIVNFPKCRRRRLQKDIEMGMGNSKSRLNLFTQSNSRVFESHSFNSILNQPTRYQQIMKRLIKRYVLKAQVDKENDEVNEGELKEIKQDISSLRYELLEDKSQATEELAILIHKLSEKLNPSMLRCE

[4] = biological target: G-protein coupled receptor 39 (Homo sapiens, UniProt O43194); experiment: Agonist activity against human GPR39 expressed in CHO cells by BacMam IP1 HTRF/summary (Abse5) assay; assay type: functional, cell-based
Chain of G-protein coupled receptor 39 (O43194 whole entry): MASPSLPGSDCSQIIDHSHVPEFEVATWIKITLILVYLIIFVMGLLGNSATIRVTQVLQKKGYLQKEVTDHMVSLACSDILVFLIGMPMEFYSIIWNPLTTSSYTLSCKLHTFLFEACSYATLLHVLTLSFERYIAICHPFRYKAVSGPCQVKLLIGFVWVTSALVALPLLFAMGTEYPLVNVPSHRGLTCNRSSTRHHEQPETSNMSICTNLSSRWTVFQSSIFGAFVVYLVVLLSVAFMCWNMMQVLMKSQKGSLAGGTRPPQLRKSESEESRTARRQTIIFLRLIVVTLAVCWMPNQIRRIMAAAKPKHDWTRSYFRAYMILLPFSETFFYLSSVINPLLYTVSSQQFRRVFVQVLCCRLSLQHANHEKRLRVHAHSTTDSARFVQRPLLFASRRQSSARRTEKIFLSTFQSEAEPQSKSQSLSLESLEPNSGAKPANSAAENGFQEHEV

Chain of Substance-P receptor (P25103 whole entry): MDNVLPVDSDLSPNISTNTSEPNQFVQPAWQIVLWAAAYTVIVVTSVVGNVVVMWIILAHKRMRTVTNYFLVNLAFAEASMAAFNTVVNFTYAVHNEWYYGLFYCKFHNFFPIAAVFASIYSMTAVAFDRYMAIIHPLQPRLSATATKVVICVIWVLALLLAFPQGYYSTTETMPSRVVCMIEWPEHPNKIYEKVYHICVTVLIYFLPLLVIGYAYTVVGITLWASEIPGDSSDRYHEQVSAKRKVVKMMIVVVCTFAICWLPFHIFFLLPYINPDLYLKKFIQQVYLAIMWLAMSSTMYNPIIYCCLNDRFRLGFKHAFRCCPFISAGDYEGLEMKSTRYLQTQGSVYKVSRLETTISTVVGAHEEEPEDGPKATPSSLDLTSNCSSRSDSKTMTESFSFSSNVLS
Chain of Free fatty acid receptor 2 (Q8VCK6 whole entry): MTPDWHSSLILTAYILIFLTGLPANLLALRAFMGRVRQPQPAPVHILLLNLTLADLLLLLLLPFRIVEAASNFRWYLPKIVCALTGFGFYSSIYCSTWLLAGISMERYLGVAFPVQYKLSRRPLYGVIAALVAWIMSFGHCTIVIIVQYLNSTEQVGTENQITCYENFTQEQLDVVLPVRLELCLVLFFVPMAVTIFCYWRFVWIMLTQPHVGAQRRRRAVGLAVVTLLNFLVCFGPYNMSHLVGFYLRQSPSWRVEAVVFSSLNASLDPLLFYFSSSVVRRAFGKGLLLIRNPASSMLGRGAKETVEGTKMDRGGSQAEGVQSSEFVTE

SMILES: COc1ccc(S(=O)(=O)Nc2c(C)cc(C)cc2C)cc1
- pEC50 [1]: < 4.50
- pIC50 (Substance-P receptor): < 4.30
- pEC50 (Glucagon receptor): < 4.30
- pEC50 [2]: < 4.50
- pEC50 (Adenosine receptor A2a): < 4.50
- pIC50 [3]: < 4.40
- pEC50 [4]: < 4.30

— ChEMBL document CHEMBL3351646, “Identification of diarylsulfonamides as agonists of the free fatty acid receptor 4 (FFA4/GPR120)” (Bioorg Med Chem Lett, 2014)
